Laboratory results from patent US20100069417A1, “NOVEL PHENYL(4-PHENYLPYRIMIDIN-2-YL)AMINE DERIVATIVES, THEIR PREPARATION, AS MEDICAMENTS, PHARMACEUTICAL COMPOSITIONS AND IN PARTICULAR AS IKK INHIBITORS” (SANOFI-AVENTIS, priority 2007, published 2010).

Compound NCCN(C1CCN(Cc2ccccc2)CC1)S(=O)(=O)c1ccc(Nc2nccc(-c3ccc(F)cc3)n2)cc1 [Example 5, N-(2-Aminoethyl)-N-(1-benzylpiperidin-4-yl)-4-[4-(4-fluorophenyl)-pyrimidin-2-ylamino]benzenesulphonamide] has a melting point of 194.4 °C. For CNC1CCN(S(=O)(=O)c2ccc(Nc3nccc(-c4ccc(F)cc4)n3)cc2)CC1 [Example 1, [4-(4-Fluorophenyl)pyrimidin-2-yl][4-(4-(methylamino)piperidin-1-ylsulphonyl)phenyl]amine], the melting point was 202.9 °C. Work on CN(Cc1ncc[nH]1)C1CCN(S(=O)(=O)c2ccc(Nc3nccc(-c4ccc(F)cc4)n3)cc2)CC1 [Example 3, [4-(4-Fluorophenyl)pyrimidin-2-yl]-(4-{4-[(1H-imidazol-2-ylmethyl) (methyl)amino]piperidin-1-ylsulphonyl}phenyl) amine] yielded a melting point of 140 °C. Work on CN(C1CCNCC1)S(=O)(=O)c1ccc(Nc2nccc(-c3ccc(F)cc3)n2)cc1 [Example 4, 4-[4-(4-Fluorophenyl)pyrimidin-2-ylamino]-N-methyl-N-(piperidin-4-yl)benzenesulphonamide] yielded a melting point of 115.6 °C. In the case of CN(CCS(C)(=O)=O)C1CCN(S(=O)(=O)c2ccc(Nc3nccc(-c4ccc(F)cc4)n3)cc2)CC1 [Example 2, [4-(4-Fluorophenyl)pyrimidin-2-yl]-(4-{4-[(2-(methylsulphonyl)ethyl)(methyl)amino]piperidin-1-ylsulphonyl}phenyl)amine], the melting point was 166.5 °C.
